According to EPA's ToxRefDB 2:

Tests used:
rat [1] = conditions: Subchronic dermal toxicity, fischer, Topical, dose end: 13 week, group: systemic, systemic / organ weight / kidney / relative to body weight
mouse [2] = conditions: Subchronic oral toxicity in rodents, b6c3f1, Feed, dose end: 13 week, group: systemic
mouse [3] = conditions: Subchronic dermal toxicity, b6c3f1, Topical, dose end: 13 week, group: systemic, systemic / pathology gross / sperm measure / sperm count
rat [4] = conditions: Subchronic oral toxicity in rodents, fischer, Feed, dose end: 13 week
rat [5] = conditions: Chronic toxicity, Oral, Feed, dose end: 182 day, group: systemic
dog [6] = conditions: Chronic toxicity; beagle; Oral; Gavage/Intubation; dose end: 364 day; group: systemic; systemic / organ weight / liver / absolute + systemic / pathology microscopic / testes / cellular alteration + systemic / pathology …
rabbit = conditions: Prenatal developmental toxicity study, Oral, Gavage/Intubation, dose end: 19 GD
rat [7] = conditions: Sub-acute repeat dose toxicity; wistar; Oral; Feed; dose end: 14 day; group: systemic; systemic / hematology / leukocyte (wbc) count differential / leukocyte (wbc) + systemic / hematology / lymphocyte / lymphocyte + systemic / …
dog [8] = conditions: Sub-acute repeat dose toxicity, beagle, Oral, Gavage/Intubation, dose end: 14 day, group: systemic
rat [9] = conditions: Chronic toxicity, wistar, Oral, Feed, dose end: 182 day, group: systemic
rat [10] = conditions: Fertility (Segment I); Oral; Gavage/Intubation; dose end: 1 generation; group: parental; systemic / in life observation / clinical signs / alopecia + systemic / in life observation / clinical signs / respiration (rales) + …
dog [11] = conditions: Chronic toxicity; beagle; Oral; Gavage/Intubation; dose end: 364 day; group: systemic; systemic / organ weight / liver / absolute + systemic / pathology microscopic / testes / cellular alteration + systemic / pathology …; remark: listed apart in the source
rat [12] = conditions: Sub-acute repeat dose toxicity, wistar, Oral, Gavage/Intubation, dose end: 14 day, group: systemic
rat [13] = conditions: Fertility (Segment I), Oral, Gavage/Intubation, dose end: 1 generation, group: parental
rat [14] = conditions: Prenatal developmental toxicity study, Oral, Gavage/Intubation, dose end: 18 GD
mouse [15] = conditions: Carcinogenicity; cd1; Oral; Feed; dose end: 97 week; group: cholinesterase; cholinesterase / cholinesterase / cholinesterase / erythrocyte cholinesterase (che) + cholinesterase / cholinesterase / cholinesterase / …
rat [16] = conditions: Multigenerational reproductive toxicity study, Crl: CD(SD) BRVAF/Plus, Oral, [Not Specified], dose end: 2 generation
dog [17] = conditions: Subchronic oral toxicity in nonrodent, beagle, Feed, dose end: 90 day, group: cholinesterase, cholinesterase / cholinesterase / cholinesterase / plasma cholinesterase (che)
rat [18] = conditions: Prenatal developmental toxicity study, Oral, Gavage/Intubation, dose end: 15 GD, group: maternal
rat [19] = conditions: Combined chronic toxicity/carcinogenicity; fischer; Oral; Feed; dose end: 105 week; group: cholinesterase; cholinesterase / cholinesterase / cholinesterase / erythrocyte cholinesterase (che) + cholinesterase / cholinesterase / cholinesterase / …
dog [20] = conditions: Subchronic oral toxicity in nonrodent, beagle, Feed, dose end: 26 week
[21] = systemic / in life observation / body weight / body weight + systemic / in life observation / body weight / body weight gain + systemic / …
[22] = systemic / organ weight / liver / relative to body weight
[23] = group: maternal, reproductive / reproductive performance / estrous cycle / length
[24] = group: systemic, systemic / clinical chemistry / gamma glutamyl transferase (ggt) / gamma glutamyl transferase (ggt) + systemic / in life observation / body …
[25] = group: systemic, systemic / organ weight / liver / absolute + systemic / organ weight / liver / relative to body weight
[26] = systemic / clinical chemistry / albumin-globulin ratio / albumin-globulin ratio + systemic / clinical chemistry / glucose / glucose + …
[27] = systemic / pathology gross / uterus / cyst + systemic / pathology microscopic / uterus / cyst + systemic / organ weight / testes / absolute…
[28] = group: developmental, systemic / in life observation / body weight / fetal weight
[29] = group: maternal, systemic / in life observation / body weight / body weight
[30] = systemic / clinical chemistry / [other] / [other] + systemic / clinical chemistry / alanine aminotransferase (alt/sgpt) / alanine …
[31] = systemic / pathology gross / full gross necropsy / rhabdomyosarcoma + systemic / clinical chemistry / albumin-globulin ratio / albumin-…
[32] = systemic / clinical chemistry / cytochrome p450, nos / cytochrome p450, nos
[33] = systemic / clinical chemistry / cytochrome p450, nos / cytochrome p450, nos + systemic / clinical chemistry / urea nitrogen / urea nitrogen…
[34] = systemic / in life observation / body weight / body weight gain + systemic / in life observation / clinical signs / abnormal feces + …
[35] = systemic / pathology microscopic / testes / dilatation
[36] = group: developmental, developmental / developmental malformation / bone / [other] + developmental / developmental malformation / bone / delayed ossification + …
[37] = group: maternal, systemic / in life observation / body weight / body weight + systemic / in life observation / body weight / body weight gain + systemic / in…
[38] = group: offspring, systemic / in life observation / body weight / offspring (pup) weight + systemic / in life observation / body weight / offspring (pup) …
[39] = group: parental, systemic / in life observation / body weight / body weight + systemic / in life observation / body weight / body weight gain + systemic / in…
[40] = group: reproductive, reproductive / reproductive performance / implantations / implantations
[41] = systemic / in life observation / body weight / body weight + systemic / in life observation / food consumption / food consumption
[42] = group: cholinesterase, cholinesterase / cholinesterase / cholinesterase / plasma cholinesterase (che) + cholinesterase / cholinesterase / cholinesterase / …
[43] = group: systemic, systemic / hematology / erythrocyte (rbc) count differential / erythrocyte (rbc) + systemic / hematology / hemoglobin (hgb) / hemoglobin (…

In the case of COc1ccc(C(=O)c2ccccc2)c(O)c1 [2-Hydroxy-4-methoxybenzophenone], the LEL (rat [1]) is reported as 25 mg/kg/day, the LOAEL (rat [1]) is reported as greater than 200 mg/kg/day and the NEL (rat [1]) is reported as 12.5 mg/kg/day. It also gave an NOAEL (rat [1]) of no less than 200 mg/kg/day, an LOAEL (mouse [2]; [21]) greater than 13900 mg/kg/day and an NOAEL (mouse [2]; [21]) of no less than 13900 mg/kg/day. For the same compound, the LEL (mouse [2]; [22]) was 629 mg/kg/day, the NEL (mouse [2]; [22]) was less than 629 mg/kg/day and the LEL (mouse [3]) was 22.5 mg/kg/day. For the same compound, the LOAEL (mouse [3]) was greater than 364 mg/kg/day, the NEL (mouse [3]) was less than 22.5 mg/kg/day and the NOAEL (mouse [3]) was no less than 364 mg/kg/day. It also gave an LEL (rat [4]; [23]) of 3260 mg/kg/day, an LOAEL (rat [4]; [23]) greater than 3260 mg/kg/day and an NEL (rat [4]; [23]) of 1600 mg/kg/day. The NOAEL (rat [4]; [23]) was no less than 3260 mg/kg/day, the LOAEL (rat [4]; [24]) was greater than 3260 mg/kg/day and the NOAEL (rat [4]; [24]) was no less than 3260 mg/kg/day. For the same compound, the LEL (rat [4]; [25]) was 196 mg/kg/day and the NEL (rat [4]; [25]) was less than 196 mg/kg/day.

In the case of CCc1cc(C2=C(C(=O)O)N(c3ccccc3C(F)(F)F)S(=O)(=O)c3ccccc32)cc2c1OCO2 [Fandosentan], the LOAEL (rat [5]; [26]) is reported as greater than 300 mg/kg/day, the NOAEL (rat [5]; [26]) is reported as no less than 300 mg/kg/day and the LEL (rat [5]; [27]) is reported as 75 mg/kg/day. For the same compound, the NEL (rat [5]; [27]) was less than 75 mg/kg/day, the LEL (dog [6]) was 10 mg/kg/day and the LOAEL (dog [6]) was greater than 100 mg/kg/day. It also gave an NEL (dog [6]) of less than 10 mg/kg/day, an NOAEL (dog [6]) of no less than 100 mg/kg/day and an LEL (rabbit; [28]) of 50 mg/kg/day. For the same compound, the LOAEL (rabbit; [28]) was greater than 50 mg/kg/day, the NOAEL (rabbit; [28]) was no less than 50 mg/kg/day and the LEL (rabbit; [29]) was 50 mg/kg/day. The LOAEL (rabbit; [29]) was greater than 50 mg/kg/day, the NEL (rabbit; [29]) was 25 mg/kg/day and the NOAEL (rabbit; [29]) was no less than 50 mg/kg/day. It also gave an LEL (rat [7]) of 100 mg/kg/day, an LOAEL (rat [7]) greater than 750 mg/kg/day and an NEL (rat [7]) of less than 100 mg/kg/day. The NOAEL (rat [7]) was no less than 750 mg/kg/day, the LOAEL (dog [8]; [30]) was greater than 200 mg/kg/day and the NOAEL (dog [8]; [30]) was no less than 200 mg/kg/day. For the same compound, the LEL (dog [8]; systemic / in life observation / clinical signs / defecation (diarrhea) + systemic / clinical chemistry / [other] / [other] + systemic / …) was 30 mg/kg/day, the LOAEL (rat [9]; [31]) was greater than 300 mg/kg/day and the NOAEL (rat [9]; [31]) was no less than 300 mg/kg/day. It also gave an LEL (rat [9]; [27]) of 75 mg/kg/day, an NEL (rat [9]; [27]) of less than 75 mg/kg/day and an LEL (rat [10]) of 25 mg/kg/day. The LOAEL (rat [10]) was greater than 250 mg/kg/day, the NEL (rat [10]) was less than 25 mg/kg/day and the NOAEL (rat [10]) was no less than 250 mg/kg/day. The LEL (dog [11]) was 10 mg/kg/day, the LOAEL (dog [11]) was greater than 100 mg/kg/day and the NEL (dog [11]) was less than 10 mg/kg/day. The NOAEL (dog [11]) was no less than 100 mg/kg/day, the LEL (rat [12]; [32]) was 100 mg/kg/day and the NEL (rat [12]; [32]) was less than 100 mg/kg/day. The LOAEL (rat [12]; [33]) was greater than 500 mg/kg/day, the NOAEL (rat [12]; [33]) was no less than 500 mg/kg/day and the LOAEL (rat [13]; [34]) was greater than 250 mg/kg/day. It also gave an NOAEL (rat [13]; [34]) of no less than 250 mg/kg/day, an LEL (rat [13]; [35]) of 25 mg/kg/day and an NEL (rat [13]; [35]) of less than 25 mg/kg/day. For the same compound, the LOAEL (rat [14]; [36]) was greater than 250 mg/kg/day, the NOAEL (rat [14]; [36]) was no less than 250 mg/kg/day and the LEL (rat [14]; group: developmental, developmental / developmental malformation / bone / [other] + developmental / developmental malformation / face / [other] + developmental / …) was 100 mg/kg/day. For the same compound, the LEL (rat [14]; [37]) was 250 mg/kg/day, the LOAEL (rat [14]; [37]) was greater than 250 mg/kg/day and the NOAEL (rat [14]; [37]) was no less than 250 mg/kg/day.

With CCCSP(=O)(OCC)Oc1ccc(Br)cc1Cl (centres undefined) [Profenofos] the LEL (mouse [15]) was 4.54 mg/kg/day, the LOAEL (mouse [15]) was 4.54 mg/kg/day and the NEL (mouse [15]) was 0.14 mg/kg/day. It also gave an NOAEL (mouse [15]) of 0.14 mg/kg/day, an LEL (rat [16]; [38]) of 29 mg/kg/day and an LOAEL (rat [16]; [38]) of 29 mg/kg/day. The NEL (rat [16]; [38]) was 7.3 mg/kg/day, the NOAEL (rat [16]; [38]) was 7.3 mg/kg/day and the LEL (rat [16]; [39]) was 29 mg/kg/day. The LOAEL (rat [16]; [39]) was 29 mg/kg/day, the NEL (rat [16]; [39]) was 7.3 mg/kg/day and the NOAEL (rat [16]; [39]) was 7.3 mg/kg/day. The LEL (rat [16]; [40]) was 29 mg/kg/day, the LOAEL (rat [16]; [40]) was greater than 29 mg/kg/day and the NEL (rat [16]; [40]) was 7.3 mg/kg/day. The NOAEL (rat [16]; [40]) was no less than 29 mg/kg/day, the LEL (dog [17]) was 0.05 mg/kg/day and the LOAEL (dog [17]) was 0.05 mg/kg/day. The NEL (dog [17]) was less than 0.05 mg/kg/day, the NOAEL (dog [17]) was less than 0.05 mg/kg/day and the LOAEL (rat [18]; [41]) was 60 mg/kg/day. It also gave an NEL (rat [18]; [41]) of 10 mg/kg/day, an NOAEL (rat [18]; [41]) of 30 mg/kg/day and an LEL (rat [18]; systemic / in life observation / food consumption / food consumption) of 30 mg/kg/day. It also gave an LEL (rat [19]) of 1 mg/kg/day, an LOAEL (rat [19]) of 1 mg/kg/day and an NEL (rat [19]) of 0.03 mg/kg/day. For the same compound, the NOAEL (rat [19]) was 0.03 mg/kg/day, the NOAEL (dog [20]; group: cholinesterase, cholinesterase / cholinesterase / cholinesterase / plasma cholinesterase (che) + cholinesterase / cholinesterase / cholinesterase / brain …) was 0.005 mg/kg/day and the LEL (dog [20]; [42]) was 0.005 mg/kg/day. It also gave an LOAEL (dog [20]; [42]) of 0.05 mg/kg/day, an NEL (dog [20]; [42]) of less than 0.005 mg/kg/day and an LEL (dog [20]; [43]) of 12.5 mg/kg/day. It also gave an LOAEL (dog [20]; [43]) greater than 12.5 mg/kg/day, an NEL (dog [20]; [43]) of 2.5 mg/kg/day and an NOAEL (dog [20]; [43]) of no less than 12.5 mg/kg/day.
